# Assay results taken from US4190672A, “Method and compositions of treating Parkinsonisms with levodopa and 3',4'-dihydroxy-2-methylisopropiophenone” (priority 1978, dated 1980).
# Read-outs that look alike come from different tables or passages of the source.
# How the values were obtained:
# [1] = Effect of DHMPP with time on plasma and brain levodopa, OMD and dopamine after levodopa administration; format: in vivo, Male Sprague-Dawley rats; details: rat, ip, 250 mg/kg
# Protocol: (§1) Male Sprague-Dawley rats weighing 200-300 g are fasted for 17 hours prior to the experiments. They are kept for at least two days on a day-light, night-dark cycle, and the experiments are conducted between 0900 and 1400 hours on the day following the fast. All injections are given intraperitoneally, and all drugs are given as a suspension in 1% methyl ceullulose. 1. Effect of DHMPP with time: Absolute control rats receive no injections. Levodopa controls are given levodopa, 250 mg/kg. […] Blood and brain are collected. […] Analytical procedures: […] The supernatants are collected and the above procedure is repeated on the residue. The combined supernatants are stored at -20° C. Blood samples are collected in heparinized tubes immediately after decapitation, chilled, and centrifuged, and the plasma is pipetted off. Plasma proteins are precipitated in 4 volumes ice-cold 0.4 M perchloric acid solution and centrifuged at 10,000 rpm for 15 min. Protein-free supernatants are decanted and stored at -20° C. […] Am. Soc. Neurochem. 4:105 (1973) Homovanillic acid (HVA) remains in the combined effluent and subsequent water wash; these eluates undergo solvent extractions and are assayed by the automated method of […]., et al., Biochem. […] Levodopa and OMD are eluted together and assayed according to the method of Fahn, S., et al., Anal. Biochem. 46:557 (1972). After dopamine is eluted, it is measured by the automated method of […]., Brit. J. Pharmacol. All eluates are assayed within 10 days of chromatography; they are stored at -20° C., thawed and mixed thoroughly before assay.
# COMT [2] = assay: as above; format: in vivo, Male Sprague-Dawley rats
# Protocol: as §1
# [3] = Behavioral responses and deaths in rats; format: in vivo, Male Sprague-Dawley rats
# Protocol: (§2) Male Sprague-Dawley rats weighing 200-300 g are fasted for 17 hours prior to the experiments. They are kept for at least two days on a day-light, night-dark cycle, and the experiments are conducted between 0900 and 1400 hours on the day following the fast. All injections are given intraperitoneally, and all drugs are given as a suspension in 1% methyl ceullulose.
# 1. Effect of DHMPP with time: Absolute control rats receive no injections. Levodopa controls are given levodopa, 250 mg/kg. Experimental animals are pretreated with DHMPP, 250 mg/kg, 30 min before receiving a combined injection of DHMPP and levodopa, each 250 mg/kg. Animals are decapitated at 30 min time intervals between 0 and 120 min after levodopa administration. Blood and brain are collected.
# (§3) 2. Effect of dose of DHMPP: Absolute and levodopa control rats receive the same treatment as described above. Experimental rats were pretreated with DHMPP (50, 100, 150, 200 or 250 mg/kg) 30 min before receiving the injection of levodopa, 250 mg/kg. All animals are decapitated 90 min after receiving levodopa. Blood and brain are collected.
# [4] = test system: catechol-O-methyl transferase (COMT); details: cited from earlier work
# [5] = crystalline solid; cited from earlier work
# COMT [6] = assay: Effect of dose of DHMPP on plasma and brain OMD, levodopa and dopamine after levodopa treatment; format: in vivo, Male Sprague-Dawley rats
# Protocol: as §2, §3
# 3. Analytical procedures: Brains are chilled on ice, homogenized in 3 volumes ice-cold 0.4 M perchloric acid containing 0.025% ascorbic acid, and centrifuged at 15,000 rpm for 20 min. The supernatants are collected and the above procedure is repeated on the residue. The combined supernatants are stored at -20° C. Blood samples are collected in heparinized tubes immediately after decapitation, chilled, and centrifuged, and the plasma is pipetted off. Plasma proteins are precipitated in 4 volumes ice-cold 0.4 M perchloric acid solution and centrifuged at 10,000 rpm for 15 min. Protein-free supernatants are decanted and stored at -20° C. All samples are chromatographed within two days of the experiment.
# Column chromatography of the sample extracts is carried out on a strong cation resin (Bio Rad AG 50-X8) according to the method of Prased, A. L. N., et al., Trans. Am. Soc. Neurochem. 4:105 (1973) Homovanillic acid (HVA) remains in the combined effluent and subsequent water wash; these eluates undergo solvent extractions and are assayed by the automated method of Prasad, A. L. N., et al., Biochem. Med. 9:136 (1974). Levodopa and OMD are eluted together and assayed according to the method of Fahn, S., et al., Anal. Biochem. 46:557 (1972). After dopamine is eluted, it is measured by the automated method of Atack, C. V., Brit. J. Pharmacol. All eluates are assayed within 10 days of chromatography; they are stored at -20° C., thawed and mixed thoroughly before assay.
# [7] = all doses of DHMPP, 90 min after levodopa
# [8] = DHMPP 250 mg/kg pretreatment plus DHMPP and levodopa 250 mg/kg each, i.p.
structure (smiles),measurement,setting,value
"N[C@@H](Cc1ccc(O)c(O)c1)C(=O)O [levodopa, 3-(3,4-dihydroxyphenyl)-L-alanine]",Tmax,"[1]; in vivo, time of peak levodopa in brain",30 min
same,Tmax,"[1]; plasma, DHMPP plus levodopa i.p., after levodopa administration, read-out: time of peak plasma levodopa level with inhibition of COMT (converted)",90 min
same,Tmax,"[1]; plasma, levodopa 250 mg/kg i.p., alone or with DHMPP, after levodopa injection, read-out: time of maximal plasma levels of levodopa (converted)",30 min
same,OMD accumulation in plasma after levodopa administration,COMT [2]; levodopa 250 mg/kg i.p.,progressively accumulates in plasma
same,time course of brain OMD levels,"COMT [2]; rat, in vivo",rise slowly for the first 30 min in levodopa and absolute control animals and then increase more rapidly and linearly
same,time of maximal dopamine concentration in brain,"COMT [2]; rat, in vivo",30 to 60 min
same,brain OMD level,"COMT [2]; rat, in vivo, 240 min",18 nmol/g
same,effect of levodopa on lethargic symptoms induced by DHMPP,[3]; levodopa 250 mg/kg i.p. after DHMPP,"markedly attenuates all lethargic symptoms induced by DHMPP, but does not abolish them"
same,behavioral responses to levodopa,"[3]; levodopa 250 mg/kg i.p., all rats treated with levodopa","increased locomotor activity, erection of hair (piloerection), abnormal protrusion of the eyeball (exophthalmos) and other signs of sympathetic stimulation"
"CC(C)C(=O)c1ccc(O)c(O)c1 [DHMPP, 3',4'-Dihydroxy-2-methyl-propiophenone]",inhibition of COMT (literature),[4],inhibition of the enzyme catechol-O-methyl transferase (COMT)
same,water solubility,[5],water-soluble
same,inhibition of OMD accumulation in plasma relative to levodopa controls,"COMT [6]; DHMPP 100 mg/kg i.p., 90 min after levodopa",completely inhibits
same,plasma OMD accumulation,"COMT [6]; DHMPP 100 mg/kg or greater i.p., 90 min after levodopa",completely blocked
same,plasma levodopa levels,"COMT [6]; DHMPP 50-250 mg/kg i.p., 90 min after levodopa 250 mg/kg",not affected
same,accumulation of OMD in brain,"COMT [6]; DHMPP 100 and 200 mg/kg i.p., 90 min after levodopa",inhibited
same,inhibition at 100 mg/kg,"COMT [6]; Rattus norvegicus, ip, 1.5 h, DHMPP 100 mg/kg i.p., 90 min after levodopa, read-out: inhibition of OMD accumulation in brain relative to levodopa controls",80%
same,dopamine levels in brain,COMT [6]; [7],not significantly altered
same,levodopa levels in brain,COMT [6]; [7],not significantly altered
same,increase in plasma levodopa levels on inhibition of COMT,COMT [2]; [8],three-fold
same,prevention of measurable accumulation of OMD in plasma,COMT [2]; [8],completely prevents measurable accumulation of OMD in plasma
same,increase in brain levodopa concentration with COMT inhibition,"COMT [2]; DHMPP plus levodopa i.p., 30 min time point",more than two-fold
same,increase in brain dopamine level on inhibition of COMT,"COMT [2]; DHMPP plus levodopa i.p., at 60 min",more than two-fold
same,accumulation of brain OMD on DHMPP treatment,"COMT [2]; DHMPP plus levodopa, i.p.",blocked
same,levodopa and dopamine concentrations in brain (conclusion),COMT [2]; animals treated with DHMPP and levodopa,striking enhancement and prolongation of levodopa and dopamine concentrations in the brain
same,accumulation of 3-O-methylated derivatives of catechols in plasma and brain (conclusion),"COMT [2]; high dosage, acute levodopa administration",does inhibit the accumulation of 3-O-methylated derivatives of catechols in plasma and brain
same,degree of lethargy versus dosage of DHMPP,[3]; DHMPP 50-250 mg/kg i.p.,related to the dosage of DHMPP employed
same,motor activity and behavioral responses to DHMPP,"[3]; DHMPP i.p., within 10 min of injection","striking reduction in motor activity within 10 min of injection, including prostration, lying on one side, rapid breathing and loss of responsiveness to handling and other stimuli"
same,piloerection in animals receiving both inhibitor and levodopa,"[3]; DHMPP plus levodopa, i.p.",Little piloerection is apparent
same,deaths at lower doses,"[3]; rat, in vivo",Deaths do not occur
same,"deaths, dose-response experiment","[3]; rat, in vivo, ip, 250 mg/kg",two of six
